The text below walks through data of patent US8614242B2, “1-(heterocyclic carbonyl)-2-substituted pyrrolidines” (Bayer Intellectual Property GmbH, priority 2010, dated 2013).

The logP is a log measure of how a compound divides between an organic and an aqueous phase. Higher therefore signals higher lipophilicity. As usually defined, the chromatographic logP is lipophilicity estimated from chromatographic retention. Read a high chromatographic logP as a more lipophilic compound.

Data set [1] concerns Fusarium nivale (var. majus). In words: In vivo preventive test on Fusarium nivale (wheat). The note with it: 500 ppm of active ingredient, evaluated 5 days after inoculation. The source says:
After the spray coating has been dried, the plants are slightly injured by using a sandblast and afterwards they are sprayed with a conidia suspension of Fusarium nivale (var. majus).

The subject of another data set is Venturia inaequalis. In words: In vivo preventive test on Venturia inaequalis (apple scab). The conditions noted are these: 100 ppm of active ingredient, evaluated 10 days after inoculation. The protocol: After the spray coating has dried on, the plants are inoculated with an aqueous conidia suspension of the causal agent of apple scab (Venturia inaequalis) and then remain for 1 day in an incubation cabinet at approximately 20° C. and a relative atmospheric humidity of 100%.

In a further data set the test system is Puccinia triticina. In words: In vivo preventive test on Puccinia triticina (wheat). The conditions noted are these: 500 ppm of active ingredient, evaluated 8 days after inoculation. The protocol: In Vivo Preventive Test on Puccinia Triticina (Wheat)
Solvent: 49 parts by weight of N,N-dimethylacetamide
Emulsifier: 1 part by weight of alkylaryl polyglycol ether
After the spray coating has been dried, the plants are sprayed with a spore suspension of Puccinia triticina.
The test is evaluated 8 days after the inoculation.

The subject of the next data set is Septoria tritici. In words: In vivo preventive test on Septoria tritici (wheat). The conditions noted are these: 500 ppm of active ingredient, evaluated 21 days after inoculation. The text has this: After the spray coating has been dried, the plants are sprayed with a spore suspension of Septoria tritici.
In a further data set the test system is Sphaerotheca fuliginea. In words: In vivo preventive test on Sphaerotheca fuliginea (cucumber). The note with it: 500 ppm of active ingredient, evaluated 7 days after inoculation.
In a further data set the test system is Leptosphaeria nodorum. In words: In vivo preventive test on Leptosphaeria nodorum (wheat). The conditions noted are these: 500 ppm of active ingredient, evaluated 8 days after inoculation. The source says: After the spray coating has been dried, the plants are sprayed with a spore suspension of Leptosphaeria nodorum.
A short description of data set [2]: logP by HPLC on reversed-phase column (EEC Directive 79/831 Annex V.A8). The data set is classed as physicochemical. The note with it: for logP: HPLC on reversed-phase column (C 18), 40° C., 0.1% aqueous formic acid and acetonitrile, linear gradient 10% to 90% acetonitrile. The protocol: In table 1, the logP values were determined in accordance with EEC Directive 79/831 Annex V.A8 by HPLC (High Performance Liquid Chromatography) on a reversed-phase column (C 18), using the method described below: Temperature: 40° C.; Mobile phases: 0.1% aqueous formic acid and acetonitrile; linear gradient from 10% acetonitrile to 90% acetonitrile. Calibration was carried out using unbranched alkan-2-ones (comprising 3 to 16 carbon atoms) with known logP values (determination of the logP values by the retention times using linear interpolation between two successive alkanones). lambda-max-values were determined using UV-spectra from 200 nm to 400 nm and the peak values of the chromatographic signals.

The test system of another data set is Pyrenophora teres. In words: In vivo preventive test on Pyrenophora teres (barley). The conditions noted are these: 500 ppm of active ingredient, evaluated 7-9 days after inoculation. The protocol: The plants remain for 48 hours in an incubation cabinet at 22° C. and a relative atmospheric humidity of 100%.
Data set [3] deals with Blumeria graminis f.sp. hordei. In words: In vivo preventive test on Blumeria graminis (barley). The conditions noted are these: 500 ppm of active ingredient, evaluated 7 days after inoculation. The text has this:
After the spray coating has been dried, the plants are dusted with spores of Blumeria graminis f.sp. hordei.

The next data set relates to Pyricularia oryzae. The data set is classed as in vivo. The conditions noted are these: rice, protective, 250 ppm of active ingredient, evaluated 5 days after inoculation.
For the next data set, the system named is Cochliobolus miyabeanus. The note with it: rice, protective, 250 ppm of active ingredient, evaluated 4 days after inoculation.
The test system of the next data set is Alternaria solani. In words: In vivo preventive test on Alternaria solani (tomato). The conditions noted are these: 500 ppm of active ingredient, evaluated 7 days after inoculation. The protocol:
The plants remain for one day in an incubation cabinet at approximately 22° C. and a relative atmospheric humidity of 100%. Then the plants are placed in an incubation cabinet at approximately 20° C. and a relative atmospheric humidity of 96%.

The next data set has as its system Rhizoctonia solani. In words: In vivo protective test on Rhizoctonia solani (rice). The conditions noted are these: 250 ppm of active ingredient, evaluated 4 days after inoculation. The text has this:
In Vivo Protective Test on Rhizoctonia Solani (Rice)

For a further data set, the system named is Phakopsora pachyrhizi. In words: In vivo protective test on Phakopsora pachyrhizi (soybeans). The note with it: 250 ppm of active ingredient, evaluated 11 days after inoculation. The protocol:
In Vivo Protective Test on Phakopsora Pachyrhizi (Soybeans)
The test is evaluated 11 days after the inoculation.

Description for Cochliobolus miyabeanus: In Vivo Protective Test on Cochliobolus Miyabeanus (Rice)
Solvent: 28.5 parts by weight of acetone
Emulsifier: 1.5 part by weight of polyoxyethylene alkyl phenyl ether
One day after spraying, the plants are inoculated with an aqueous spore suspension of the causal agent of rice brown spot (Cochliobolus miyabeanus). The plants are then placed in an incubator at approximately 25° C. and a relative atmospheric humidity of approximately 100% for 1 day.
The test is evaluated 4 days after the inoculation.

Turning to `Cn1nc(C(F)F)c(C(=O)N2CCCC2Cc2cccc(Cl)c2)c1F` (racemic) [Example 64], the Efficacy is 100% in [1]; 100% in the data set with Venturia inaequalis; 100% in the data set on Puccinia triticina; 100% with Septoria tritici; 93% in the data set on Sphaerotheca fuliginea; 93% in the data set on Leptosphaeria nodorum. Further, the Efficacy (with Pyrenophora teres; in data set [3]) was 100% each time. In data set [2], the logP was determined as 3.25.
As for `Cc1cc(C)c(CC2CCCN2C(=O)c2c(C(F)F)nn(C)c2F)cc1C` (racemic) [Example 66], the Efficacy was determined as 100% in [1]; 100% in the data set with Venturia inaequalis; 97% in the data set on Pyricularia oryzae; 98% with Cochliobolus miyabeanus; 100% in the data set with Puccinia triticina; 100% in the data set with Alternaria solani. The Efficacy in the data set with Rhizoctonia solani amounted to 80%; with Septoria tritici, 90%; in the data set on Sphaerotheca fuliginea it was 88%; with Pyrenophora teres, 100%. In [2], this compound came in with a logP of 3.81.
For `Cn1nc(C(F)F)c(C(=O)N2CCCC2Cc2c(F)cccc2Cl)c1F` (racemic) [Example 67], the Efficacy in data set [1] turned out to be 100%; in the data set with Venturia inaequalis, 100%; in the data set with Puccinia triticina it was 94%; in the data set with Alternaria solani it was 100%; with Septoria tritici, 100%; with Sphaerotheca fuliginea, 95%. Moreover, the Efficacy (in the data set on Leptosphaeria nodorum; with Pyrenophora teres; in data set [3]) was 100% in each case. Moreover, the lipophilicity (logP) in [2] is 3.15.
Take `Cn1nc(C(F)F)c(C(=O)N2CCCC2c2cccc(C(F)(F)F)c2)c1F` (stereo not shown) [Example 17]: the Efficacy in the data set on Pyricularia oryzae turned out to be 92%; with Cochliobolus miyabeanus it was 98%; with Alternaria solani, 100%; in the data set with Sphaerotheca fuliginea it was 95%; in the data set with Pyrenophora teres, 100%. In addition, in data set [2], the logP was found to be 3.06.
As to `Cn1nc(C(F)F)c(C(=O)N2CCCC2Cc2ccccc2)c1F` (stereo not shown) [Example 52], the Efficacy in [1] stood at 100%; in the data set on Venturia inaequalis it was 100%; with Puccinia triticina it was 89%; with Alternaria solani it was 100%; with Septoria tritici, 100%; in the data set with Leptosphaeria nodorum, 100%. For the same compound, the Efficacy (with Pyrenophora teres; in data set [3]) was 100% throughout. The logP in data set [2] came to 2.84.
`CCC(c1ccccc1)C1CCCN1C(=O)c1c(C(F)F)nn(C)c1F` (stereo not shown) [Example 53]: the Efficacy in data set [1] turned out to be 100%; in the data set with Venturia inaequalis, 100%; with Cochliobolus miyabeanus, 95%; in the data set on Puccinia triticina, 88%; in the data set on Alternaria solani, 94%; with Septoria tritici, 100%. The Efficacy in the data set with Sphaerotheca fuliginea worked out at 93%; in the data set on Leptosphaeria nodorum, 100%; in the data set with Pyrenophora teres, 100%; in data set [3] it was 100%. This compound showed a logP in [2] of 3.48. In the data set with Phakopsora pachyrhizi, the “protection (efficacy)” value was found to be 85%.
Consider `Cc1ccccc1CC1CCCN1C(=O)c1c(C(F)F)nn(C)c1F` (stereo not shown) [Example 54], for which the Efficacy in [1] is recorded as 100%; with Venturia inaequalis, 100%; in the data set on Puccinia triticina it was 100%; in the data set with Alternaria solani, 94%; in the data set on Septoria tritici it was 100%; in the data set with Sphaerotheca fuliginea it was 95%. Besides, the Efficacy is 100% in the data set on Leptosphaeria nodorum, 95% in the data set with Pyrenophora teres and 100% in [3]. Moreover, the logP in data set [2] was determined as 3.13.
As to `Cc1cccc(CC2CCCN2C(=O)c2c(C(F)F)nn(C)c2F)c1` (stereo not shown) [Example 55, [3-(difluoromethyl)-5-fluoro-1-methyl-1H-pyrazol-4-yl][2-(3-methyl-benzyl)pyrrolidin-1-yl]methanone], the Efficacy is reported as 100% in data set [1]; 100% in the data set on Venturia inaequalis; 100% with Puccinia triticina; 100% in the data set with Septoria tritici; 95% in the data set with Sphaerotheca fuliginea; 100% with Leptosphaeria nodorum. Moreover, the Efficacy (with Pyrenophora teres; in data set [3]) was 100% each time. The compound also yielded a chromatographic logP in data set [2] of 3.21.
For the compound `Cc1ccc(CC2CCCN2C(=O)c2c(C(F)F)nn(C)c2F)cc1` (stereo not shown) [Example 56], the Efficacy stood at 100% in data set [1]; 98% with Venturia inaequalis; 89% with Puccinia triticina; 94% in the data set on Alternaria solani; 100% with Septoria tritici; 81% in the data set with Sphaerotheca fuliginea. Further, the Efficacy is 93% with Leptosphaeria nodorum, 100% in the data set with Pyrenophora teres and 100% in [3]. In data set [2], this compound returned a logP of 3.23.
As for `Cn1nc(C(F)F)c(C(=O)N2CCCC2Cc2ccccc2F)c1F` (stereo not shown) [Example 57], the Efficacy is given as 100% in [1]; 100% with Venturia inaequalis; 100% in the data set on Puccinia triticina; 94% in the data set with Alternaria solani; 100% with Septoria tritici; 94% in the data set on Sphaerotheca fuliginea. Further, the Efficacy (in the data set on Leptosphaeria nodorum; in the data set on Pyrenophora teres; in data set [3]) was 100% throughout. The same compound registered a lipophilicity (logP) in data set [2] of 2.86.
On to `Cn1nc(C(F)F)c(C(=O)N2CCCC2Cc2cccc(F)c2)c1F` (stereo not shown) [Example 58], for which the Efficacy stood at 100% in [1]; 99% with Venturia inaequalis; 100% in the data set with Puccinia triticina; 89% in the data set with Alternaria solani; 100% in the data set with Septoria tritici; 96% in the data set with Sphaerotheca fuliginea. The Efficacy (with Leptosphaeria nodorum; with Pyrenophora teres; in [3]) was 100% throughout. Also, in data set [2], the lipophilicity (logP) turned out to be 2.90.
As to `Cn1nc(C(F)F)c(C(=O)N2CCC[C@H]2COc2c(Cl)cc(Cl)cc2Cl)c1F` [Example 82], the Efficacy in [1] was 100%; in the data set with Pyricularia oryzae, 98%; in the data set with Cochliobolus miyabeanus, 93%; in the data set with Puccinia triticina, 100%; with Rhizoctonia solani, 100%; with Septoria tritici, 86%. Further, the Efficacy (in the data set on Sphaerotheca fuliginea; in data set [3]) was 100% throughout. This compound also yielded a lipophilicity (logP) in data set [2] of 4.24.
